In US12416101B2, “Genetically-encoded macrocyclic peptide libraries bearing a pharmacophore” (THE GOVERNORS OF THE UNIVERSITY OF ALBERTA, priority 2018, dated 2025):
Residues, ends and D or L forms follow the SMILES beside them.

Tests used:
Solubility in water = assay type: physicochemical
phage = assay: Toxicity of hydrazines to phage, plaque forming assay; design: species or system bacteriophage
Protocol: In the reaction between phage diketone and hydrazine, some hydrazine derivatives cause toxicity to phage, leading to elimination of >99.999% of infective phage particles in less than 5 minutes (as determined by plaque forming assay). For example, treating phage with 2 mM phenyl hydrazine for 2 minutes decreased the number of infective particles from 10^5 to zero. The source and mechanism of toxicity was not obvious and was difficult to systematize: it depended on the concentration of hydrazine and its nature, as well as some sporadic factors (preparation of solution). Toxicity dependence on concentration of hydrazine was not linear. In many cases, hydrazine was lethal to phage eliminating all infective particles before the reaction was completed. […] Optimal location conditions between phage-diketone and hydrazine derivatives are in the presence of 1-2 mM metal chelator such as EDTA.

| Compound | solubility in water (Solubility in water) | decrease in the number of infective particles (phage; 2 to 20 mM phenyl hydrazine in the presence of 1 to 2 mM EDTA, several hours) | number of infective particles after treatment (phage; phage treated with 2 mM phenyl hydrazine for 2 minutes, starting number 10^5, no chelator) |
| --- | --- | --- | --- |
| CC(C)[C@H](NC(=O)[C@H](CS)NC(=O)[C@H](CCC(N)=O)NC(=O)[C@@H](N)CO)C(=O)N[C@@H](CCCNC(=N)N)C(=O)N[C@@H](CO)C(=O)N[C@@H](CS)C(=O)O [SQCVRSC] (H-SQCVRSC-OH; N-terminus and C-terminus assumed) | high |  |  |
| NNc1ccccc1 [phenyl hydrazine] |  | did not show any significant decrease | zero |
